# Laboratory results as given in ChEMBL document CHEMBL5724696, “Autophagy assay results for EUbOPEN Chemogenomics Library” (2024).
# Columns and labels:
# Format in all cases: functional, Homo sapiens
# TERT-RPE1 = assay: (§1) Here: values are normalized to the negative (DMSO; defined as 0% autophagy induction) and positive (250nM Torin1; mTOR inhibitor; defined as maximal inducer of autophagy = 100%) control compounds and represented as % of autophagy induction. […] The impact of autophagy induction on cells is complex and depends on the affected target. As such, the magnitude of a phenotype may not be equally mirrored in the %-value of autophagy induction and vice versa. The dynamics of the induction may indicate the mode of activation: e.g. activation via phosphorylation or a signaling cascade may occur fast, while activation via transcription factors may take considerably longer. […] Of note, treatment concentrations may be sub-optimal for specific compounds, leading to false negative annotations.; settings: Culturing Media DMEM/F12 (1:1), 1 % Penicillin/Streptomycin, 10% Fetal bovin serum Add-On: No, Screening Media Control DMEM/F12 (1:1), Screening Media Samples DMEM/F12 (1:1)
# U2OS [1] = assay: as §1; settings: Culturing Media DMEM, 1 % Penicillin/Streptomycin, 10% Fetal bovin serum Add-On: No, Screening Media Control DMEM, Screening Media Samples DMEM
# U2OS [2] = assay: as §1; settings: Culturing Media DMEM, 1 % Penicillin/Streptomycin, 10% Fetal bovin serum Add-On: No, Screening Media Control DMEM, Screening Media Samples DMEM; remark: listed apart in the source
# [3] = Compound Concentration 0.5 uM, Timepoint 12 hours
# [4] = Compound Concentration 0.5 uM, Timepoint 24 hours
# [5] = Compound Concentration 0.5 uM, Timepoint 36 hours
# [6] = Compound Concentration 0.5 uM, Timepoint 60 hours
# [7] = Compound Concentration 2 uM, Timepoint 12 hours
# [8] = Compound Concentration 2 uM, Timepoint 24 hours
# [9] = Compound Concentration 2 uM, Timepoint 36 hours
# [10] = Compound Concentration 2 uM, Timepoint 60 hours
# [11] = Compound Concentration 10 uM, Timepoint 12 hours
# [12] = Compound Concentration 10 uM, Timepoint 24 hours
# [13] = Compound Concentration 10 uM, Timepoint 36 hours
# [14] = Compound Concentration 10 uM, Timepoint 60 hours
Compound,autophagy induction (TERT-RPE1; [3]) [%],autophagy induction (TERT-RPE1; [4]) [%],autophagy induction (TERT-RPE1; [5]) [%],autophagy induction (TERT-RPE1; [6]) [%],autophagy induction (TERT-RPE1; [7]) [%],autophagy induction (TERT-RPE1; [8]) [%],autophagy induction (TERT-RPE1; [9]) [%],autophagy induction (TERT-RPE1; [10]) [%],autophagy induction (TERT-RPE1; [11]) [%],autophagy induction (TERT-RPE1; [12]) [%],autophagy induction (TERT-RPE1; [13]) [%],autophagy induction (TERT-RPE1; [14]) [%],autophagy induction (U2OS [1]; [3]) [%],autophagy induction (U2OS [1]; [4]) [%],autophagy induction (U2OS [1]; [5]) [%],autophagy induction (U2OS [1]; [6]) [%],autophagy induction (U2OS [1]; [7]) [%],autophagy induction (U2OS [1]; [8]) [%],autophagy induction (U2OS [1]; [9]) [%],autophagy induction (U2OS [1]; [10]) [%],also measured
O=C(O)C1CN(Cc2ccc(-c3nc4cc(Cc5ccccc5F)ccc4s3)c(F)c2)C1,-8.917,-10.8072,-9.562,-5.859,-8.468,-9.963,-11.3812,-13.3438,-4.678,-6.178,-7.73,-6.2118,4.055,-0.4566,-1.32,-0.5858,1.76,0.3602,-0.6521,-0.7655,autophagy induction (U2OS [1]; [11]): -1.302%; autophagy induction (U2OS [1]; [12]): -1.781%; autophagy induction (U2OS [1]; [13]): -1.367%; autophagy induction (U2OS [1]; [14]): -0.5842%; autophagy induction (U2OS [2]; [3]): 3.797%; autophagy induction (U2OS [2]; [4]): -4.944%; autophagy induction (U2OS [2]; [5]): -8.688%; autophagy induction (U2OS [2]; [6]): -8.1655%; autophagy induction (U2OS [2]; [7]): 22.0588%; autophagy induction (U2OS [2]; [8]): 16.1887%; autophagy induction (U2OS [2]; [9]): 14.8366%; autophagy induction (U2OS [2]; [10]): 4.458%; autophagy induction (U2OS [2]; [11]): 26.4516%; autophagy induction (U2OS [2]; [12]): 18.766%; autophagy induction (U2OS [2]; [13]): 13.3531%; autophagy induction (U2OS [2]; [14]): 2.726%
COc1ccccc1CN[C@H]1C2CCN(CC2)[C@H]1C(c1ccccc1)c1ccccc1 [CP-96345],-7.147,-11.4989,-14.454,-21.453,-6.616,-10.9647,-14.8934,-18.8514,2.262,3.387,7.76,2.279,8.36,2.83,0.2431,0.5109,-21.7864,-9.531,-7.223,-5.938,autophagy induction (U2OS [1]; [11]): -2.456%; autophagy induction (U2OS [1]; [12]): -0.4585%; autophagy induction (U2OS [1]; [13]): -0.2201%; autophagy induction (U2OS [1]; [14]): -2.05%; autophagy induction (U2OS [2]; [3]): -3.495%; autophagy induction (U2OS [2]; [4]): -5.808%; autophagy induction (U2OS [2]; [5]): -2.326%; autophagy induction (U2OS [2]; [6]): -4.4745%; autophagy induction (U2OS [2]; [7]): 5.091%; autophagy induction (U2OS [2]; [8]): 1.613%; autophagy induction (U2OS [2]; [9]): -0.5186%; autophagy induction (U2OS [2]; [10]): 0.7913%; autophagy induction (U2OS [2]; [11]): 26.1721%; autophagy induction (U2OS [2]; [12]): 19.1804%; autophagy induction (U2OS [2]; [13]): 19.6555%; autophagy induction (U2OS [2]; [14]): 18.5295%
CCCCN(CCCC)C(=O)CN1C[C@@H](c2ccc3c(c2)OCO3)[C@H](C(=O)O)[C@H]1c1ccc(OC)cc1,-5.689,-7.876,-10.2076,-16.9579,-2.05,-6.33,-9.375,-15.3533,0.4134,0.2558,-0.8322,-6.302,-1.434,-1.039,-0.6288,-0.1138,-9.274,-4.861,-2.29,-1.949,autophagy induction (U2OS [1]; [11]): 6.695%; autophagy induction (U2OS [1]; [12]): 2.81%; autophagy induction (U2OS [1]; [13]): 1.829%; autophagy induction (U2OS [1]; [14]): -0.9275%; autophagy induction (U2OS [2]; [3]): -15.0632%; autophagy induction (U2OS [2]; [4]): -6.645%; autophagy induction (U2OS [2]; [5]): -7.125%; autophagy induction (U2OS [2]; [6]): -16.2807%; autophagy induction (U2OS [2]; [7]): -9.31%; autophagy induction (U2OS [2]; [8]): -9.369%; autophagy induction (U2OS [2]; [9]): -11.2096%; autophagy induction (U2OS [2]; [10]): -4.989%; autophagy induction (U2OS [2]; [11]): 9.199%; autophagy induction (U2OS [2]; [12]): 8.705%; autophagy induction (U2OS [2]; [13]): 6.119%; autophagy induction (U2OS [2]; [14]): 4.931%
CSc1ccc(C(=O)N[C@@H]2CCCC[C@@H]2NC(=O)CNC(=O)c2cc(C(F)(F)F)ccc2NC(=O)NC(C)C)cc1,-7.317,-10.4362,-10.5931,-10.1253,-7.697,-8.893,-11.9452,-15.6367,-4.351,-5.968,-5.344,-2.567,-1.519,-1.673,-0.1292,-0.4268,6.41,-0.3397,0.2664,0.6149,autophagy induction (U2OS [1]; [11]): -6.202%; autophagy induction (U2OS [1]; [12]): -3.0141%; autophagy induction (U2OS [1]; [13]): -1.6234%; autophagy induction (U2OS [1]; [14]): -0.3642%; autophagy induction (U2OS [2]; [3]): -3.4763%; autophagy induction (U2OS [2]; [4]): -6.206%; autophagy induction (U2OS [2]; [5]): -3.128%; autophagy induction (U2OS [2]; [6]): -12.7895%; autophagy induction (U2OS [2]; [7]): 8.51%; autophagy induction (U2OS [2]; [8]): 8.515%; autophagy induction (U2OS [2]; [9]): 8.998%; autophagy induction (U2OS [2]; [10]): -1.4223%; autophagy induction (U2OS [2]; [11]): 3.613%; autophagy induction (U2OS [2]; [12]): 5.882%; autophagy induction (U2OS [2]; [13]): 6.117%; autophagy induction (U2OS [2]; [14]): 10.5977%
